# Experimental data as given in ChEMBL document CHEMBL1151294, “Evaluation of limonoids against the murine P388 lymphocytic leukemia cell line” (J Nat Prod, 1983).
# Calls of active or inactive are those of the source. The rule behind the calls is not given here.
# How the values were obtained:
# Assay type in all cases: functional, organism-based
# P388 [1] = assay: In vivo antitumor activity against mouse P388 cells at 0.25 to 2 mg
# P388 [2] = assay: In vivo antitumor activity against mouse P388 cells at 0.37 to 6 mg
# P388 [3] = assay: In vivo antitumor activity against mouse P388 cells at 0.5 to 8 mg
# P388 [4] = assay: In vivo antitumor activity against mouse P388 cells at 3 to 24 mg
# P388 [5] = assay: In vivo antitumor activity against mouse P388 cells at 1.25 to 10 mg
# P388 [6] = assay: In vivo antitumor activity against mouse P388 cells at 0.75 to 6 mg
# P388 [7] = assay: In vivo antitumor activity against mouse P388 cells at 1.5 to 24 mg
# P388 [8] = assay: In vivo antitumor activity against mouse P388 cells at 3.7 to 7.5 mg
# P388 [9] = assay: In vivo antitumor activity against mouse P388 cells at 1.5 to 12 mg
# P388 [10] = assay: In vivo antitumor activity against mouse P388 cells at 0.75 to 12 mg
# P388 [11] = assay: In vivo antitumor activity against mouse P388 cells at 0.5 to 4 mg
# P388 [12] = assay: In vivo antitumor activity against mouse P388 cells at 2.5 to 40 mg
# P388 [13] = assay: In vivo antitumor activity against mouse P388 cells at 0.03 to 2 mg
# P388 [14] = assay: In vivo antitumor activity against mouse P388 cells at 0.01 to 2.4 mg
# P388 [15] = assay: In vivo antitumor activity against mouse P388 cells at 5 to 20 mg
# P388 [16] = assay: In vivo antitumor activity against mouse P388 cells at 1.25 to 2.5 mg
# P388 [17] = assay: In vivo antitumor activity against mouse P388 cells at 2 to 200 mg
structure (smiles),measurement,setting,value
CC(=O)O[C@@H]1C[C@H](O)[C@@]23CO[C@H](O)[C@]1(C)[C@@H]2C[C@@H](O)[C@]1(C)[C@@H]3C(=O)C[C@@]2(C)[C@H](c3ccoc3)C[C@H]3O[C@]312,Activity,P388 [1],inactive
COC(=O)[C@@]1(C)CCC[C@]2(C)C3=C(CC[C@@H]12)C(=O)c1occc1CC3,Activity,P388 [2],inactive
CC1(C)C(=O)CC[C@]2(C)[C@H]3CC[C@@]4(C)[C@H](c5ccoc5)OC(=O)[C@H]5O[C@]54[C@]3(C)C(=O)C[C@@H]12,Activity,P388 [3],inactive
CC(=O)O[C@@H]1C[C@@]2(C)[C@H](c3ccoc3)C[C@H]3O[C@]32[C@]2(C)C(=O)C(O)=C3C(C)(C)C(=O)C=C[C@]3(C)C12 (stereo partly drawn),Activity,P388 [4],inactive
CC(=O)O[C@H]1[C@@H](OC(C)=O)[C@]2(C)[C@H](CC[C@]3(C)[C@H](c4ccoc4)C[C@@H]4O[C@]423)[C@@]2(C)C=CC(=O)OC(C)(C)[C@H]12,Activity,P388 [5],inactive
CC(C)(O)[C@@H]1CC(=O)[C@]2(C)[C@H](CC[C@@]3(C)[C@@H](c4ccoc4)OC(=O)[C@H]4O[C@]432)[C@@]1(C)/C=C\C(=O)O,Activity,P388 [6],inactive
CC1(C)O[C@H]2CC(=O)OC[C@]23[C@H]2CC[C@@]4(C)[C@@H](c5ccoc5)OC(=O)[C@H]5O[C@]54[C@]2(C)[C@@H](O)C[C@@H]13,Activity,P388 [6],inactive
CC1(C)C(=O)C=C[C@]2(C)[C@H]3CC[C@@]4(C)[C@H](c5ccoc5)OC(=O)[C@H]5O[C@]54[C@]3(C)[C@H](O)C[C@@H]12,Activity,P388 [7],inactive
C=C1[C@@H]([C@@]2(C)[C@@H](OC(C)=O)CC(=O)O[C@](C)(COC(C)=O)[C@@H]2C(=O)OC)[C@@H](OC=O)[C@H](OC(=O)[C@H](O)[C@H](C)CC)[C@@]2(C)[C@H](c3ccoc3)CC(=O)[C@]12O,Activity,P388 [8],inactive
CC1(C)O[C@H]1[C@H]1C[C@@H]([C@@H]2CC[C@]3(C)C4=CC[C@H]5C(C)(C)C(=O)CC[C@]5(C)[C@H]4CC[C@@]23C)[C@H](O)O1,Activity,P388 [9],inactive
"CC(=O)OC1[C@@H]2[C@@]3(C)C=C[C@@H](O)[C@](C)(OC(C)=O)[C@@H]3C[C@@H](OC(C)=O)[C@@]2(C)[C@]23O[C@@H]2CC(c2ccoc2)[C@]3(C)[C@H]1OC(=O)C(C)C (single isomer, unassigned)",Activity,P388 [10],inactive
CC1(C)O[C@@H](CC(=O)O)[C@]23CO[C@H](C(=O)[C@]4(C)[C@@H]2CC[C@@]2(C)[C@H]([C@H]5CCOC5)OC(=O)[C@H]5O[C@]524)[C@H]13,Activity,P388 [11],inactive
CC1(C)O[C@H]2CC(=O)OC[C@@]23[C@H]1CC(=O)[C@@]1(C)C2=CC(=O)O[C@H](c4ccoc4)[C@]2(C)CC[C@@H]13,Activity,P388 [11],inactive
CC1(C)O[C@H]2CC(=O)OC[C@@]23C1=C(O)C(=O)[C@]1(C)[C@@H]3CC[C@@]2(C)[C@@H](c3ccoc3)OC(=O)[C@H]3O[C@]321,Activity,P388 [11],inactive
C[C@]12C[C@H](c3ccoc3)OC(=O)[C@@H]1CC[C@@]13COC(=O)C1=CCC[C@@H]32,Activity,P388 [1],inactive
CC(=O)O[C@@H]1C[C@H]2C(C)(C)C(=O)C=C[C@]2(C)[C@H]2CC[C@]3(C)C(=CC(=O)O[C@H]3c3ccoc3)[C@@]21C,Activity,P388 [12],inactive
CC1(C)C(=O)C=C[C@]2(C)[C@H]3CC[C@@]4(C)[C@H](c5ccoc5)OC(=O)[C@H]5O[C@]54[C@]3(C)C(=O)C[C@@H]12,Activity,P388 [7],inactive
CC1(C)O[C@@H](CC(=O)O)[C@]23CO[C@H](C(=O)[C@]4(C)[C@@H]2CC[C@@]2(C)[C@@H](c5ccoc5)OC(=O)[C@H]5O[C@]524)[C@H]13,Activity,P388 [6],inactive
CC(=O)OC1=C2C(C)(C)O[C@H]3CC(=O)OC[C@@]23[C@H]2CC[C@@]3(C)[C@@H](c4ccoc4)OC(=O)[C@H]4O[C@]43[C@]2(C)C1=O,Activity,P388 [11],inactive
CC1=C2CC(=O)O[C@H](c3ccoc3)[C@]2(C)CC[C@@H]1[C@@]12COC(=O)C[C@@H]1OC(C)(C)C2CC(=O)O (stereo partly drawn),Activity,P388 [11],inactive
C[C@H]1CC[C@@]23COC(=O)C2=CCC[C@@H]3[C@@]12C[C@H](c1ccoc1)OC2=O,Activity,P388 [13],inactive
CC1(C)O[C@H]2CC(=O)OC[C@]23[C@H]2CC[C@@]4(C)[C@@H](c5ccoc5)OC(=O)[C@H]5O[C@]54[C@]2(C)[C@@H](OC(=O)CCl)C[C@@H]13,Activity,P388 [3],inactive
"CC(=O)O[C@@H]1C[C@@H]2[C@](C)(C=C[C@@H](O)[C@]2(C)OC(C)=O)[C@H]2C(=O)[C@H](OC(C)=O)[C@@]3(C)C(c4ccoc4)C[C@H]4O[C@@]43[C@@]21C (single isomer, unassigned)",Activity,P388 [10],inactive
CC(=O)O[C@@H]1C[C@H](O)[C@@]23CO[C@H](O)[C@]1(C)[C@@H]2C[C@@H](O)[C@@]1(C)[C@@H]2C(=O)C[C@@H](c4ccoc4)[C@]2(C)CC(=O)[C@@H]13,Activity,P388 [14],inactive
CC(=O)O[C@@H]1C[C@H](O)[C@@]23CO[C@H](O)[C@]1(C)[C@@H]2C[C@@H](O)[C@]1(C)[C@@H]3C(=O)[C@H](O)[C@@]2(C)[C@H](c3ccoc3)C[C@H]3O[C@@]321,Activity,P388 [15],Toxic
same,Activity,P388 [16],inactive
C=C1[C@@H]2CC[C@@]3(C)[C@H](c4ccoc4)OC(=O)C[C@]13O[C@H]1CC(=O)C(C)(C)[C@H](CC(=O)OC)[C@]12C,Activity,P388 [17],inactive
CC1(C)OC(=O)C=C[C@]2(C)[C@H]3CC[C@]4(C)[C@H](c5ccoc5)C[C@@H]5O[C@@]54[C@]3(C)C(=O)[C@H](O)[C@@H]12,Activity,P388 [5],inactive
